B1: Construct 1585: SFFV promoter-hIL-10-ADAM10/17 cleavage site-PDGFRb TM-A(EAAAK)3A-d913 degron; minTK-hIL-12 (opposite direction); SEQ ID NO: 187 (nucleic acid)
DNA: CCGATAAAATAAAAGATTTTATTTAGTCTCCAGAAAAAGGGGGGAATGAAAGACCCCACCTGTAGGTTTGGCAAGCTAGCTGCAGTAACGCCATTTTGCAAGGCATGGAAAAATACCAAACCAAGAATAGAGAAGTTCAGATCAAGGGCGGGTACATGAAAATAGCTAACGTTGGGCCAAACAGGATATCTGCGGTGAGCAGTTTCGGCCCCGGCCCGGGGCCAAGAACAGATGGTCACCGCAGTTTCGGCCCCGGCCCGAGGCCAAGAACAGATGGTCCCCAGATATGGCCCAACCCTCAGCAGTTTCTTAAGACCCATCAGATGTTTCCAGGCTCCCCCAAGGACCTGAAATGACCCTGCGCCTTATTTGAATTAACCAATCAGCCTGCTTCTCGCTTCTGTTCGCGCGCTTCTGCTTCCCGAGCTCTATAAAAGAGCTCACAACCCCTCACTCGGCGCGCCAGTCCTCCGACAGACTGAGTCGCCCGGGGGGGATCTGGAGCTCTCGAGAATTCATGCACTCATCTGCTCTCCTTTGCTGTCTCGTGCTCCTGACTGGAGTACGCGCGTCACCCGGTCAAGGGACACAAAGCGAAAACTCCTGTACGCATTTTCCGGGCAACCTCCCTAATATGCTTCGCGACTTGCGAGATGCATTTTCCAGGGTGAAGACCTTCTTCCAGATGAAGGACCAGTTGGATAATCTTCTCCTCAAGGAGTCTCTTTTGGAGGACTTCAAGGGCTACCTGGGATGTCAAGCCCTTAGCGAAATGATTCAGTTTTATCTTGAAGAGGTCATGCCGCAAGCTGAGAACCAGGACCCCGACATAAAAGCCCATGTGAACTCCCTCGGCGAGAATTTGAAGACGCTGAGACTTAGATTGAGAAGATGTCATAGATTTCTCCCATGTGAGAATAAGTCCAAGGCTGTCGAGCAGGTTAAGAATGCTTTCAATAAGTTGCAGGAAAAAGGAATCTATAAGGCAATGAGCGAGTTTGACATCTTTATTAACTACATTGAGGCTTATATGA
modifications: misc_feature 1..1034 Description of Artificial Sequence: Synthetic polynucleotide
B2: Construct 1584: SFFV promoter-hIL-10; minTK-hIL-12 (opposite direction); native hIL-10 without a degron; SEQ ID NO: 186 (nucleic acid)
DNA: CCGATAAAATAAAAGATTTTATTTAGTCTCCAGAAAAAGGGGGGAATGAAAGACCCCACCTGTAGGTTTGGCAAGCTAGCTGCAGTAACGCCATTTTGCAAGGCATGGAAAAATACCAAACCAAGAATAGAGAAGTTCAGATCAAGGGCGGGTACATGAAAATAGCTAACGTTGGGCCAAACAGGATATCTGCGGTGAGCAGTTTCGGCCCCGGCCCGGGGCCAAGAACAGATGGTCACCGCAGTTTCGGCCCCGGCCCGAGGCCAAGAACAGATGGTCCCCAGATATGGCCCAACCCTCAGCAGTTTCTTAAGACCCATCAGATGTTTCCAGGCTCCCCCAAGGACCTGAAATGACCCTGCGCCTTATTTGAATTAACCAATCAGCCTGCTTCTCGCTTCTGTTCGCGCGCTTCTGCTTCCCGAGCTCTATAAAAGAGCTCACAACCCCTCACTCGGCGCGCCAGTCCTCCGACAGACTGAGTCGCCCGGGGGGGATCTGGAGCTCTCGAGAATTCATGCACTCATCTGCTCTCCTTTGCTGTCTCGTGCTCCTGACTGGAGTACGCGCGTCACCCGGTCAAGGGACACAAAGCGAAAACTCCTGTACGCATTTTCCGGGCAACCTCCCTAATATGCTTCGCGACTTGCGAGATGCATTTTCCAGGGTGAAGACCTTCTTCCAGATGAAGGACCAGTTGGATAATCTTCTCCTCAAGGAGTCTCTTTTGGAGGACTTCAAGGGCTACCTGGGATGTCAAGCCCTTAGCGAAATGATTCAGTTTTATCTTGAAGAGGTCATGCCGCAAGCTGAGAACCAGGACCCCGACATAAAAGCCCATGTGAACTCCCTCGGCGAGAATTTGAAGACGCTGAGACTTAGATTGAGAAGATGTCATAGATTTCTCCCATGTGAGAATAAGTCCAAGGCTGTCGAGCAGGTTAAGAATGCTTTCAATAAGTTGCAGGAAAAAGGAATCTATAAGGCAATGAGCGAGTTTGACATCTTTATTAACTACATTGAGGCTTATATGACTATGAAAATTAGAAACTAA
modifications: misc_feature 1..1054 Description of Artificial Sequence: Synthetic polynucleotide

How the values were obtained:
Format in all cases: cell-based
[1] = tested on: Hep3B cells; assay: Nanoluciferase activity (Promega Nanoglo) in Hep3B cells transduced with AAV2/AAV8 nanoluciferase-degron constructs, with or without IMiD (Example 5); conditions: for luciferase activity relative to cells not treated / minimal effective dose in vitro: Hep3B cells transduced with AAV2 construct; for luciferase activity relative to cells not treated: 1-0.01 μM drug, all concentrations tested; for minimal effective dose in vitro: concentration that may be approaching the minimal effective dose; for Fold change relative to no drug: decrease in nanoluciferase activity, Hep3B cells transduced with AAV2 nanoluciferase/degron construct
Method: AAV2 and AAV8 viral vector constructs were generated that expressed nanoluciferase as a chimeric protein fused to a C-terminal degron using an A(EAAK)3A linker (SEQ ID NO: 193). Constructs were generated using packaging vectors with either AAV2 or AAV8 capsid protein.
Luciferase activity was assessed following the general protocol below: • Day 0: Hep3b cells were plated at 50,000 cells per well in a 96 well plate • Day 1: 1e6 vg/cell AAV2 or 3e6 vg/cell AAV8 was added to cells in presence or absence of 1 μM Lenalidomide (or 1 μM-0.01 μM Lenalidomide or Pomalidomide) • Day 3: Cells were lysed and luciferase activity was measured with Promega Nanoglo kit

[2] = tested on: HEK293Ft cells; assay: SEAP QuantiBlue assay of SEAP/degron constructs in HEK293Ft cells (Example 1); conditions: 1 μM lenalidomide vs no drug
[3] = tested on: donor-derived T cells; assay: SEAP QuantiBlue assay of SEAP/degron constructs in donor-derived T cells (Example 1); conditions: 1 μM lenalidomide vs no drug
Method: A series of pL17d-based viral vector constructs were generated using Secreted Alkaline Phosphatase (SEAP) fused to a degron (d913 super degron) using various linkers, as described in Table 6A with sequences listed in Table 6B. The d913 super degron is described in more detail in International Application Pub. No. WO2019/089592A1, herein incorporated by reference for all purposes.
(§1) SEAP assays were performed using the QuantiBlue kit (Invivogen; rep-qb1). […] The CliniMACS Prodigy utilizes a closed-system, single-use disposable kits for many different cell types. The automated program performs platelet washes, CD4+& CD8+ bead labeling, and positive selection over a magnet resulting in cell suspensions with high purity. Positively selected T cells were then sampled, analyzed for cell surface phenotype via flow cytometry and cryopreserved via a controlled rate freezer. • Cells were then thawed and activated on Day 0 (1e6 cells/mL in a 24 well plate were activated 3:1 with CD3/CD28 Dynabeads) • On Day 1, 100K GS units of virus were added to cells • On Day 2, fresh media was added to T cells • On Day 4, each well was split into 2 wells of 6 well plate with +/−1 μM lenalidomide • On Day 7, cells were pelleted and 20 uL supernatant from each well was harvested and incubated with 180 uL QuantiBlue (Invivogen) for 1 h at 37 deg, SEAP activity was read out on a plate reader at 655 nm

[4] = tested on: HEK293Ft cells; assay: SEAP QuantiBlue assay of Membrane-Cleavable Degron constructs in HEK293Ft cells (Example 2); conditions: 1 μM lenalidomide vs no drug
[5] = tested on: donor-derived T cells; assay: SEAP QuantiBlue assay of Membrane-Cleavable Degron constructs in donor-derived T cells (Example 2); conditions: supernatant, 1 μM lenalidomide vs no drug
Method: A series of pL17d-based viral vector constructs were generated using Secreted Alkaline Phosphatase (SEAP) fused to a degron (d913 super degron) using various linkers, including transmembrane domain containing linkers, as described in Table 8A with sequences listed in Table 8B.
as §1, with “into 6” for “into 2”, “of 48” for “of 6”, “lenalidomide (3 wells with drug, 3 wells without)” for “lenalidomide”

[6] = tested on: Jurkat T cells; assay: SEAP QuantiBlue assay in Jurkat T cells (Example 3); conditions: supernatant, 1 μM lenalidomide vs no drug
Method: The viral vector constructs were generated, as described above, using Secreted Alkaline Phosphatase (SEAP) fused to a degron (d913 super degron) with various linkers, including transmembrane domain containing linkers. The constructs examined are described in Table 10.
SEAP assays were performed using the QuantiBlue kit (Invivogen; rep-qb1). For experiments performed in Jurkat cells, the following protocol was followed: • On Day 1, cells were plated at 1e6 cells in 1 mL in a 24 well plate and 300 k GS units of virus was added • On Day 3, cells were split into 6 wells of a 48 well plate (1e5 cells in 0.5 mL) and drug was added to 3 of these wells (1 μM lenalidomide) • On Day 6, cells were pelleted and 20 uL supernatant from each well was harvested and incubated with 180 uL QuantiBlue (Invivogen) for 1 h at 37 deg, SEAP activity was read out on a plate reader at 655 nm

[7] = tested on: donor-derived T cells; assay: hIL-10 secretion from donor T cells by Luminex assay, normalized to hIL-12 (Example 4); conditions: for % 1 uM Len of no drug (IL10/IL12 ratio) / Mean IL10/IL12 ratio (1 uM Len) / Mean IL10/IL12 ratio (no drug): donor T cell supernatant; for % 1 uM Len of no drug (IL10/IL12 ratio): 1 uM lenalidomide relative to no drug; for Mean IL10/IL12 ratio (1 uM Len): 1 uM lenalidomide; for Mean IL10/IL12 ratio (1 uM Len) / Mean IL10/IL12 ratio (no drug): hIL-10 normalized to hIL-12
Method: The viral vectors also expressed human IL-12 (hIL-12) from a separate promoter as a normalization control for cell number, viability, and transduction efficiency.
Cytokine secretion was assessed following the general protocol below: • Day 0: Donor T cells (enriched as previously described above) were thawed and activated with CD3/CD28 Dynabeads • Day 1: T cells were transduced with viral constructs (100 k GoStix values per 1e6 cells) • Day 2: Media was changed • Day 4: Cells were passaged • Day 7: Cells were spun down, washed 3× with media, then resuspended in media+/−1 μM Lenalidomide • Day 9: Supernatants were harvested and were evaluated for hIL10 and hIL12 concentration by Luminex assay

[8] = SEAP absorbance divided by cell count per well

Molecule | luciferase activity relative to cells not treated [1] | minimal effective dose in vitro [1] [µM] | Fold change relative to no drug ([1]; drug dose 0.01 uM) [fold] | Fold change relative to no drug ([1]; drug dose 0.05 uM) [fold] | Fold change relative to no drug ([1]; drug dose 0.1 uM) [fold] | Fold change relative to no drug ([1]; drug dose 0.5 uM) [fold] | Fold change relative to no drug ([1]; drug dose 1 uM) [fold] | % 1 uM Len of no drug (IL10/IL12 ratio) [7] [%] | Mean IL10/IL12 ratio (1 uM Len) [7] | Mean IL10/IL12 ratio (no drug) [7] | further results
Nc1cccc2c1CN(C1CCC(=O)NC1=O)C2=O (centres unmarked) [lenalidomide] | significant decreases in luciferase activity | ~0.01 | 6 | 18 | 25 | 35 | 60 | – | – | – | –
Nc1cccc2c1C(=O)N(C1CCC(=O)NC1=O)C2=O (centres unmarked) [pomalidomide] | significant decreases in luciferase activity | ~0.01 | 4 | 12 | 19 | 18 | 19 | – | – | – | –
Construct 419: pL17d viral vector construct expressing SEAP without a degron; SEQ ID NO: 179 [reference compound] | – | – | – | – | – | – | – | – | – | – | % SEAP OFF vs. ON (Len treated/untreated *100) Normalized to cell count [2, 8]: 133%; % SEAP OFF vs. ON (Len treated/untreated *100) ([2]; supernatant): 103%; % SEAP OFF vs. ON (Len treated/untreated *100) Normalized to cell count [3, 8]: 169%; % SEAP OFF vs. ON (Len treated/untreated *100) ([3]; supernatant): 127%; % SEAP OFF vs. ON (Len treated/untreated *100) Normalized to cell count [4, 8]: 104.3%; % SEAP OFF vs. ON (Len treated/untreated *100) ([4]; supernatant): 70%; % SEAP OFF vs. ON (Len treated/untreated *100) [5]: 129%; OFF % of ON (SEAP enzymatic activity) [6]: 105.3 (ns) %
B1 | – | – | – | – | – | – | – | 56 | 1.65 | 2.97 | –
B2 | – | – | – | – | – | – | – | 131 | 4.09 | 3.11 | hIL-10 secretion upon addition of lenalidomide ([7]; donor-derived T cells, 1 μM lenalidomide): did not result in reduced secretion

— US20240091358A1, “[…] REGULATION” (Senti Biosciences, Inc., priority 2021, published 2024)
